In US10344026B2, “Compositions and methods of targeting mutant K-ras” (NANTBIO, INC., priority 2017, dated 2019):
Like-named read-outs stand apart in the source and are kept apart here.

Legend:
Assay type in all cases: cell-based
[1] = system: Ishikawa (K-Ras wild type cell line); experiment: Viability assay (CellTiterBlue, 72 hr) Ishikawa; conditions: Homo sapiens, GI50, CellTiterBlue
Protocol: (§1) Viability assays were performed on exemplary compounds and Table 2 below lists exemplary results for selected compounds tested on K-Ras wild type cell lines (Ishikawa, U87-MG, HCC827, and A375) and various K-Ras mutant cell lines (Panc1-G12D; Panc10.05-G12D; HCT116-G31D). Results are expressed in μM and corresponding structures are shown in FIGS. 2A-2G and Examples 1-152, above.
(§2) Cells are counted and seeded at 1000 cells/36 ul medium/well into 384-well microplates. Cells are returned to 37° C. CO2 incubator for 18 hr. Drug is made as 200× in DMSO and diluted into medium to 10×. To each well is added 4 ul 10× drug, and plates are returned to the incubator. Final assay DMSO concentration is 0.5%. After 72 hr, 8 ul CellTiterBlue (Promega) is added to each well. After 3 hr, fluorescence (Ex550/Em590) is determined on the Victor Plate Reader (Perkin Elmer). Assay range is determined by DMSO control (100% viability) and 100 uM tamoxifen (0% viability). GI50 values are calculated using Graphpad Prism.

[2] = system: U87-MG (K-Ras wild type cell line); experiment: Viability assay (CellTiterBlue, 72 hr) U87-MG; conditions: Homo sapiens, U-87 MG, GI50, CellTiterBlue
Protocol: as §1, §2

[3] = system: HCT116-G31D; experiment: Viability assay (CellTiterBlue, 72 hr) HCT116; conditions: Homo sapiens, HCT-116, GI50, CellTiterBlue, read-out: 72 hr Cell Viability HCT116 (G13D)
Protocol: as §1, §2

[4] = system: Panc10.05-G12D; experiment: Viability assay (CellTiterBlue, 72 hr) Panc10.05; conditions: Homo sapiens, Panc1005, GI50, CellTiterBlue, read-out: 72 hr Cell Viability Panc10.05 (G12D)
Protocol: as §1, §2

[5] = system: Panc1-G12D; experiment: Viability assay (CellTiterBlue, 72 hr) Panc1; conditions: Homo sapiens, PANC-1, GI50, CellTiterBlue, read-out: 72 hr Cell Viability Panc1 (G12D)
Protocol: as §1, §2

[6] = system: HCC827 (K-Ras wild type cell line); experiment: Viability assay (CellTiterBlue, 72 hr) HCC827; conditions: Homo sapiens, GI50, CellTiterBlue
Protocol: as §1, §2

[7] = biological target: T1, K-Ras G12D (Homo sapiens, UniProt P01116, G12D); experiment: G-LISA Ras activation, 293H cells transfected with G12D mutant; conditions: compound 1 hour
T1 construct: expressed in transfected cells; host or cells: 293H cells
Protocol: 293H cells were seeded in 6-wells at 0.6×10^6 cells per well and transfected next day with 5 μg of Ras wild-type, or G12C, G12D or G12V mutant DNA plasmid vector using transfection reagent Lipofectamine 3000. Next day cells were treated with 3.125-25 μM of Ras compounds for 1 hour. Wild-type transfected cells were subsequently treated with 100 ng/ml EGF for 2 minutes. Cells were washed once in ice-cold PBS, lysed in complete lysis buffer on ice, and processed by G-LISA according to Cytoskeleton protocol.

[8] = Ishikawa cells (K-Ras wild-type)

T1 sequence (P01116 whole entry G12D): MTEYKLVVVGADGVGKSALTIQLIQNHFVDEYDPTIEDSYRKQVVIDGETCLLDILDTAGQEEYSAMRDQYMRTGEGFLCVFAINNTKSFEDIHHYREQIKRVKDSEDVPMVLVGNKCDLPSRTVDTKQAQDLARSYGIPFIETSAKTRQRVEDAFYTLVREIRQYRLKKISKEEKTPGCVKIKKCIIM

Structure (SMILES)	IC50 ([1]; Ishikawa K-Ras wild-type)	IC50 ([2]; U87-MG K-Ras wild-type)	IC50 ([3]; HCT116 K-Ras G13D)	IC50 ([4]; Panc10.05 K-Ras G12D)	IC50 ([5]; Panc1 K-Ras G12D)	IC50 ([6]; HCC827 K-Ras wild-type)	IC50 [1, 8]	IC50 ([2]; U87-MG cells (K-Ras wild-type))	IC50 ([3]; HCT116 cells (K-Ras G13D))	IC50 ([4]; Panc10.05 cells (K-Ras G12D))	IC50 ([5]; Panc1 cells (K-Ras G12D))	IC50 [7]	IC50 ([6]; HCC827 cells (K-Ras wild-type))
Cc1nc(C)c(C(=O)Nc2nc(-c3ccc4c(c3)CCC(=O)N4Cc3ccc4ccccc4c3)cs2)o1 [Compound 80, 2,4-dimethyl-N-(4-(1-(naphthalen-2-ylmethyl)-2-oxo-1,2,3,4-tetrahydroquinolin-6-yl)thiazol-2-yl)oxazole-5-carboxamide]	> 25 µM	4 µM	9 µM	9 µM	> 25 µM	7 µM	–	–	–	–	–	–	–
Cc1nc(C)c(C(=O)Nc2nc(-c3ccc4c(c3)CCC(=O)N4Cc3cccc4ccccc34)cs2)o1 [Compound 79, 2,4-dimethyl-N-(4-(1-(naphthalen-1-ylmethyl)-2-oxo-1,2,3,4-tetrahydroquinolin-6-yl)thiazol-2-yl)oxazole-5-carboxamide]	> 25 µM	> 25 µM	> 25 µM	> 25 µM	> 25 µM	> 25 µM	–	–	–	–	–	–	–
O=C1CCc2cc(-c3csc(NC(=O)c4ccc(Cl)s4)n3)ccc2N1 [Compound 150, 5-chloro-N-(4-(2-oxo-1,2,3,4-tetrahydroquinolin-6-yl)thiazol-2-yl)thiophene-2-carboxamide]	–	–	–	–	–	–	5 µM	8 µM	27 µM	20 µM	27 µM	> 25 µM	20 µM
Cc1nc(C)c(C(=O)Nc2nc(-c3ccc4c(c3)CCC(=O)N4CC(O)CO)cs2)o1 (stereo not drawn) [Compound 89, N-(4-(1-(2,3-dihydroxypropyl)-2-oxo-1,2,3,4-tetrahydroquinolin-6-yl)thiazol-2-yl)-2,4-dimethyloxazole-5-carboxamide]	–	13 µM	11 µM	12 µM	> 25 µM	12 µM	–	–	–	–	–	–	–
Cc1nc(C)c(C(=O)Nc2nc(-c3ccc4c(c3)CCC(=O)N4CC3CCCNC3)cs2)o1 (stereo not drawn) [Compound 88]	–	19 µM	17 µM	16 µM	> 25 µM	15 µM	–	–	–	–	–	–	–
COc1cc(Cl)cc(CN2C(=O)CCc3cc(-c4csc(NC(=O)c5oc(C)nc5C)n4)ccc32)c1 [Compound 78]	> 25 µM	> 25 µM	> 25 µM	> 25 µM	> 25 µM	> 25 µM	–	–	–	–	–	–	–
Cc1nc(C)c(C(=O)Nc2nc(-c3ccc4c(c3)CCC(=O)N4Cc3cccc([N+](=O)[O-])c3)cs2)o1 [Compound 87, 2,4-dimethyl-N-(4-(1-(3-nitrobenzyl)-2-oxo-1,2,3,4-tetrahydroquinolin-6-yl)thiazol-2-yl)oxazole-5-carboxamide]	–	> 25 µM	> 25 µM	17 µM	17 µM	> 25 µM	–	–	–	–	–	–	–
Cc1nc(C)c(C(=O)Nc2nc(-c3ccc4c(c3)CCC(=O)N4Cc3ccc4c(c3)OCO4)cs2)o1 [Compound 74, N-(4-(1-(benzo[d][1,3]dioxol-5-ylmethyl)-2-oxo-1,2,3,4-tetrahydroquinolin-6-yl)thiazol-2-yl)-2,4-dimethyloxazole-5-carboxamide]	16 µM	6 µM	> 25 µM	2 µM	11 µM	> 25 µM	–	–	–	–	–	22.4 µM	–
O=C1CCc2cc(-c3csc(NC(=O)c4cc(Br)cs4)n3)ccc2N1 [Compound 149, 4-bromo-N-(4-(2-oxo-1,2,3,4-tetrahydroquinolin-6-yl)thiazol-2-yl)thiophene-2-carboxamide]	–	–	–	–	–	–	7 µM	11 µM	28 µM	22 µM	> 25 µM	–	22 µM
Cc1nc(C)c(C(=O)Nc2nc(-c3ccc4c(c3)CCC(=O)N4Cc3cccc4cnccc34)cs2)o1 [Compound 83, N-(4-(1-(isoquinolin-5-ylmethyl)-2-oxo-1,2,3,4-tetrahydroquinolin-6-yl)thiazol-2-yl)-2,4-dimethyloxazole-5-carboxamide]	2 µM	3 µM	4 µM	4 µM	12 µM	6 µM	–	–	–	–	–	> 25 µM	–
COc1cc(CN2C(=O)CCc3cc(-c4csc(NC(=O)c5oc(C)nc5C)n4)ccc32)cc(OC)c1 [Compound 77, N-(4-(1-(3,5-dimethoxybenzyl)-2-oxo-1,2,3,4-tetrahydroquinolin-6-yl)thiazol-2-yl)-2,4-dimethyloxazole-5-carboxamide]	> 25 µM	> 25 µM	> 25 µM	> 25 µM	> 25 µM	> 25 µM	–	–	–	–	–	–	–
Cc1nc(-c2ccc3c(c2)OCC3)sc1C(=O)Nc1nc(-c2ccc3c(c2)CCC(=O)N3)cs1 [Compound 19, 2-(2,3-dihydrobenzofuran-6-yl)-4-methyl-N-(4-(2-oxo-1,2,3,4-tetrahydroquinolin-6-yl)thiazol-2-yl)thiazole-5-carboxamide]	2 µM	4 µM	5 µM	2 µM	6 µM	8 µM	–	–	–	–	–	–	–
Cc1cc(C)c(C(=O)Nc2nc(-c3ccc4c(c3)CCC(=O)N4)cs2)cn1 [Compound 18]	2 µM	11 µM	26 µM	3 µM	5 µM	> 25 µM	–	–	–	–	–	–	–
Cn1nccc1-c1csc(C(=O)Nc2nc(-c3ccc4c(c3)CCC(=O)N4)cs2)c1 [Compound 151, 4-(1-methyl-1H-pyrazol-5-yl)-N-(4-(2-oxo-1,2,3,4-tetrahydroquinolin-6-yl)thiazol-2-yl)thiophene-2-carboxamide]	–	–	–	–	–	–	1.3 µM	5 µM	2 µM	1.4 µM	4 µM	23.5 µM	8 µM
Cc1nc(C2CCCCC2)oc1C(=O)Nc1nc(-c2ccc3c(c2)CCC(=O)N3)cs1 [Compound 11, 2-cyclohexyl-4-methyl-N-(4-(2-oxo-1,2,3,4-tetrahydroquinolin-6-yl)thiazol-2-yl)oxazole-5-carboxamide]	–	> 25 µM	16 µM	16 µM	> 25 µM	21 µM	–	–	–	–	–	–	–
